The record followed here is patent US20020183205A1, “Use of alpha2-adrenergic receptor agonists and adrenergic inhibitors in reducing defoliation” (priority 2001, published 2002).

What all share (format): in vivo
The subject of assay [1] is calamondin (Citrus madurensis). The assay can be described thus: Leaf drop of calamondin after canopy spray with agonists alone or in combination with Ethrel. The following applies: 7 days after application. Here is the method: (§1) A solution of an α2-adrenergic agonist was prepared. The solution contained 0.25 to 2 mM of agonist dissolved in water containing an appropriate surfactant. Ethrel® (2-chloroethyl phosphonic acid), an abscission agent, was added at a concentration that causes fruit loosening (in the case of citrus, 100 to 400 mg/L, depending on the variety). The solution was sprayed onto a tree canopy until “run-off,” typically about 2.5 liters per 15 foot tree. […] Under field conditions the canopies were not sprayed with the agonist-containing solutions if rainfall was anticipated within 24 hours. A positive control, containing a suitable concentration of Ethrel® or other abscission agent, as well as an agonist and surfactant control were sprayed on separate canopies. After several days, usually 3 to 10, differences in leaf drop were measured by counting or weighing dropped leaves. Fruit detachment force (FDF, a measurement defined as the force required to remove fruit from the tree stem) was measured in all treatments.
(§2) Kinetic® was used as a surfactant. Leaf drop data are leaf loss means of 3 branches times 10 trees, 7 days after application. FDF data are means of 5 fruit times 10 trees, 5 days after application.

The subject of assay [2] is calamondin (Citrus madurensis). Nature of the assay: Fruit detachment force (FDF) of calamondin after canopy spray with agonists alone or in combination with Ethrel. The following applies: 5 days after application. On the procedure:
as §1, §2

In assay [3] the test system is Valencia orange (Citrus sinensis). Nature of the assay: Leaf drop of Valencia orange, clonidine alone or in combination with Ethrel. To be noted: 7 days after application. Here is the method:
as §1
Kinetic® was used as a surfactant. Data are the leaf loss means of 3 branches times 5 trees, 7 days after application.

Another assay relates to Valencia orange. Nature of the assay: Leaf drop of Valencia orange, Ethrel, coronatine, coronatine+guanfacine. The following applies: 10 days after application. Here is the method:
The effect of Ethrel, coronatine, coronatine+guanfacine, and adjuvant alone on % cumulative leaf drop in Valencia orange was tested. The data reported in Table 3 are means of 3 branches times 5 trees, 10 days after application.

The mark [4] stands for this setting: agonist 1 mM + Ethrel 400 mg/L, Kinetic surfactant.
Where [5] appears, read: agonist 1 mM alone, Kinetic surfactant.
[6] abbreviates: agonist 0.5 mM + Ethrel 400 mg/L, Kinetic surfactant.
Where [7] appears, read: agonist 0.5 mM alone, Kinetic surfactant.
Setting [8] is: Ethrel 400 mg/L alone (positive control).

With `Clc1cccc(Cl)c1N=C1NCCN1` [Clonidine, clonidine], the “% Cumulative Leaf Drop” value in assay [1] (setting [4]) is 13.4%; in assay [1] (setting [5]) it was 5.8%; in assay [3] (1 mM clonidine + Ethrel 100 mg/L) it was 6.1%; in assay [3] (1 mM clonidine + Ethrel 200 mg/L), 14.3%; in assay [3] (1 mM clonidine alone), 2.7%; in assay [3] (2 mM clonidine + Ethrel 100 mg/L) it was 7.0%. Besides, the “% Cumulative Leaf Drop” value in assay [3] (2 mM clonidine + Ethrel 200 mg/L) is listed as 15.1%; in assay [3] (2 mM clonidine alone) it was 3.2%. For the same molecule, the entries for the “% Reduction in FDF” value in assay [2] (setting [4]) and in assay [2] (setting [5]) were 40.5% and 0.5%, respectively.
For the molecule `Brc1c(NC2=NCCN2)ccc2nccnc12` [UK14,304, Brimonidine], the “% Cumulative Leaf Drop” value stood at 15.6% in assay [1] (setting [6]) and 6.0% in assay [1] (setting [7]). The entries for the “% Reduction in FDF” value in assay [2] (setting [6]) and in assay [2] (setting [7]) were 33.4% and 1.2%, respectively.
Regarding `CC[C@H]1C=C(C(=O)N[C@@]2(C(=O)O)C[C@@H]2CC)[C@H]2CCC(=O)[C@H]2C1` [coronatine], the “% Cumulative Leaf Drop” value in the assay on Valencia orange (coronatine 200 mg/L alone) came to 12.56%.
On to `N=C(N)N/N=C/c1c(Cl)cccc1Cl` [Guanabenz, guanabenz], for which the “% Cumulative Leaf Drop” value in assay [1] (setting [4]) came out at 14.1%; in assay [1] (setting [5]), 5.9%. The figures for the “% Reduction in FDF” value in assay [2] (setting [4]) and in assay [2] (setting [5]) were 34.6% and 1.0%, respectively.
For the molecule `O=P(O)(O)CCCl` [Ethrel ®, 2-chloroethyl phosphonic acid], the “% Cumulative Leaf Drop” value came to 68.3% in assay [1] (setting [8]), 49.23% in the assay on Valencia orange (Ethrel 200 mg/L alone), 19.1% in assay [3] (Ethrel 100 mg/L alone) and 43.8% in assay [3] (Ethrel 200 mg/L alone). The “% Reduction in FDF” value in assay [2] (setting [8]) is listed as 41.6%.
For the molecule `N=C(N)NC(=O)Cc1c(Cl)cccc1Cl` [Guanafacine, guanfacine], the “% Cumulative Leaf Drop” value is 4.8% in assay [1] (setting [4]), 6.5% in assay [1] (setting [5]) and 3.07% in the assay with Valencia orange (2 mM guanfacine + coronatine 200 mg/L). In addition, the “% Reduction in FDF” value is listed as 34.8% in assay [2] (setting [4]) and 1.0% in assay [2] (setting [5]).
